{"source": "patent US9301923B2", "about": "“Lipids, lipid compositions, and methods of using them” (NOVARTIS AG, priority 2009, dated 2016)", "key": {"[1]": {"assay": "pKa of the lipid by TNS fluorescence", "type": "physicochemical", "description": "Unless explicitly indicated otherwise, all pKas referred to herein are measured in water at standard temperature and pressure. Also, unless otherwise indicated, all references to pKa are references to pKa measured using the following technique.\n2 mM solution of lipid in ethanol are prepared by weighing the lipid and then dissolving in ethanol.\nThis is done with all eight buffers.\nPriority: Column priority • Carriage Speed: Normal • Auto read: Off\nThe normalized fluorescence intensity vs. pH chart is then plotted in the Microsoft Excel software. The eight points are connected with a smooth line.\nThe pKa determined using this method is precise to about 0.2 pKa units."}, "[2]": {"tested_on": "Factor VII", "assay": "Factor VII activity assay, in vivo liver delivery of FVII siRNA LNP", "parameters": "species or system mouse", "conditions": "~48 h", "description": "Female CD-1 mice are received from Charles River Labs and maintained on standard lab chow and water ad libitum. The animals weigh approximately 25 grams at time of dosing. Formulated siRNA is administered as a single dose at various dose levels intravenously via the lateral tail vein calculated on a (mg siRNAs/kg) basis according to individual animal weights (10 ml/kg injection volume).\nFormulated siRNAs are made up of double stranded siRNA sequences specific to a target mRNA sequence, and are in the form of lipid nucleotid particles (LNPs) containing cationic lipids, stealth lipids and neutral lipids, as provided in the Examples below. The siRNA construct for use in targeting the liver is specific to Factor VII. […] FVII siRNA duplex sequence\nFormulated Factor VII siRNA is administered as a single dose at various dose levels intravenously via the lateral tail vein calculated on a mg siRNAs/kg basis according to individual animal weights (10 ml/kg injection volume). Approximately 48 h after injection, the mice are euthanized by CO2 inhalation followed by exsanguinations through the vena cava. […] In some cases, small pieces (˜50 mg) of liver are collected and snap frozen in liquid nitrogen for follow up mRNA quantitation.\nAn assay standard curve is prepared using pooled plasma aliquots from the vehicle control animals."}, "[3]": {"assay": "Particle size and PDI by dynamic light scattering (Malvern Zetasizer)", "type": "physicochemical", "description": "Unless indicated otherwise, all sizes referred to herein are the average sizes (diameters) of the fully formed nanoparticle, as measured by dynamic light scattering on a Malvern Zetasizer. The nanoparticle sample is diluted in phosphate buffered saline (PBS) so that the count rate is approximately 200-400 kcts. The data is presented as a weighted average of the intensity measure.\nThe acronym PDI stands for polydispersity index. Unless indicated otherwise, all PDIs referred to herein are the PDI of the fully formed nanoparticle, as measured by dynamic light scattering on a Malvern Zetasizer. The nanoparticle sample is diluted in phosphate buffered saline (PBS) so that the count rate is approximately 200-400 kcts."}, "[4]": {"conditions": "dose 3 mg/kg siRNA i.v., lipid/DSPC/CHOL/AVANTI 880150P 50/28/18/4, N/P 3.43"}, "[5]": {"conditions": "dose 3 mg/kg siRNA i.v., lipid/no neutral lipid/CHOL/AVANTI 880150P 50/0/46/4, N/P 3.43"}, "[6]": {"conditions": "lipid/DSPC/CHOL/AVANTI 880150P 50/28/18/4, N/P 3.43"}, "[7]": {"conditions": "lipid/no neutral lipid/CHOL/AVANTI 880150P 50/0/46/4, N/P 3.43"}, "[8]": {"conditions": "dose 1 mg/kg siRNA i.v., lipid/DSPC/CHOL/AVANTI 880150P 50/28/18/4, N/P 3.43"}, "[9]": {"conditions": "lipid/no neutral lipid/CHOL/GM-020 NOF 60/0/36/4, N/P 3"}}, "note": "Read-outs that look alike come from different tables or passages of the source."}
{"smiles": "CCCCC/C=C\\C/C=C\\CCCCCCCCOCC(CN1CCC(O[Si](C)(C)C(C)(C)C)C1)OCCOCCO[C@H]1CC[C@@]2(C)C(=CC[C@H]3[C@@H]4CC[C@H]([C@H](C)CCCC(C)C)[C@@]4(C)CC[C@@H]32)C1", "note": "(stereo partly shown) [E0042]", "values": [{"measurement": "pKa", "setting": "[1]; aqueous buffer series with fluorescent probe TNS, probe TNS, pKa of the cationic lipid, read-out: pKa", "result": 6.7}, {"measurement": "FVII inhib %", "setting": "[2]; [4]", "result": 49.1, "unit": "%"}, {"measurement": "FVII inhib %", "setting": "[2]; [5]", "result": 84.5, "unit": "%"}, {"measurement": "Final size (nm)", "setting": "[3]; [6]", "result": 83, "unit": "nm"}, {"measurement": "PDI", "setting": "[3]; [6]", "result": 0.11}, {"measurement": "Final size (nm)", "setting": "[3]; [7]", "result": 73, "unit": "nm"}, {"measurement": "PDI", "setting": "[3]; [7]", "result": 0.19}]}
{"smiles": "CCCCC/C=C\\C/C=C\\CCCCCCCCOC[C@H](CN1CCCCC1)OCCOCCO[C@H]1CC[C@@]2(C)C(=CCC3C2CC[C@@]2(C)C3CC[C@@H]2[C@H](C)CCCC(C)C)C1", "note": "(stereo partly shown) [E0043]", "values": [{"measurement": "pKa", "setting": "[1]; pKa", "result": 6.33}, {"measurement": "FVII inhib %", "setting": "[2]; [4]", "result": 95.7, "unit": "%"}, {"measurement": "FVII inhib %", "setting": "[2]; [5]", "result": "−11.7", "unit": "%"}, {"measurement": "Final size (nm)", "setting": "[3]; [6]", "result": 110, "unit": "nm"}, {"measurement": "PDI", "setting": "[3]; [6]", "result": 0.24}, {"measurement": "Final size (nm)", "setting": "[3]; [7]", "result": 76, "unit": "nm"}, {"measurement": "PDI", "setting": "[3]; [7]", "result": 0.15}]}
{"smiles": "CCCCC/C=C\\C/C=C\\CCCCCCCCOCC(CN1C(C)CCC1C)OCCOCCO[C@H]1CC[C@@]2(C)C(=CCC3C2CC[C@@]2(C)C3CC[C@@H]2[C@H](C)CCCC(C)C)C1", "note": "(stereo partly shown) [E0046]", "values": [{"measurement": "pKa", "setting": "[1]; pKa", "result": 5.75}, {"measurement": "FVII inhib %", "setting": "[2]; [5]", "result": 12.7, "unit": "%"}, {"measurement": "Final size (nm)", "setting": "[3]; [7]", "result": 194, "unit": "nm"}, {"measurement": "PDI", "setting": "[3]; [7]", "result": 0.116}]}
{"smiles": "CCCCC/C=C\\C/C=C\\CCCCCCCCOCC(CN1CCCCC1)OC(=O)COCC(=O)O[C@H]1CC[C@@]2(C)C(=CCC3C2CC[C@@]2(C)C3CC[C@@H]2[C@H](C)CCCC(C)C)C1", "note": "(stereo partly shown) [E0047]", "values": [{"measurement": "pKa", "setting": "[1]; pKa", "result": 5.55}, {"measurement": "FVII inhib %", "setting": "[2]; [5]", "result": "−3.4", "unit": "%"}, {"measurement": "Final size (nm)", "setting": "[3]; [7]", "result": 112, "unit": "nm"}, {"measurement": "PDI", "setting": "[3]; [7]", "result": 0.061}]}
{"smiles": "CCCCC/C=C\\C/C=C\\CCCCCCCCOCC(CN1CCC[C@@H]1C)OCCOCCO[C@H]1CC[C@@]2(C)C(=CCC3C2CC[C@@]2(C)C3CC[C@@H]2[C@H](C)CCCC(C)C)C1", "note": "(stereo partly shown) [E0048]", "values": [{"measurement": "pKa", "setting": "[1]; pKa", "result": 6.56}, {"measurement": "FVII inhib %", "setting": "[2]; [5]", "result": 88.5, "unit": "%"}, {"measurement": "Final size (nm)", "setting": "[3]; [7]", "result": 225, "unit": "nm"}, {"measurement": "PDI", "setting": "[3]; [7]", "result": 0.115}]}
{"smiles": "CCCCC/C=C\\C/C=C\\CCCCCCCCOCC(CN1CCC[C@H]1C)OCCOCCO[C@H]1CC[C@@]2(C)C(=CCC3C2CC[C@@]2(C)C3CC[C@@H]2[C@H](C)CCCC(C)C)C1", "note": "(stereo partly shown) [E0049]", "values": [{"measurement": "pKa", "setting": "[1]; pKa", "result": 6.85}, {"measurement": "FVII inhib %", "setting": "[2]; [5]", "result": 78.8, "unit": "%"}, {"measurement": "Final size (nm)", "setting": "[3]; [7]", "result": 237, "unit": "nm"}, {"measurement": "PDI", "setting": "[3]; [7]", "result": 0.09}]}
{"smiles": "CCCCC/C=C\\C/C=C\\CCCCCCCCOCC(CN1CCCC1c1ccccc1)OCCOCCO[C@H]1CC[C@@]2(C)C(=CC[C@H]3[C@@H]4CC[C@H]([C@H](C)CCCC(C)C)[C@@]4(C)CC[C@@H]32)C1", "note": "(stereo partly shown) [E0050]", "values": [{"measurement": "pKa", "setting": "[1]; pKa", "result": 4.9}, {"measurement": "FVII inhib %", "setting": "[2]; [4]", "result": "−7.2", "unit": "%"}, {"measurement": "FVII inhib %", "setting": "[2]; [5]", "result": "−10.4", "unit": "%"}, {"measurement": "Final size (nm)", "setting": "[3]; [6]", "result": 100, "unit": "nm"}, {"measurement": "PDI", "setting": "[3]; [6]", "result": 0.21}, {"measurement": "Final size (nm)", "setting": "[3]; [7]", "result": 103, "unit": "nm"}, {"measurement": "PDI", "setting": "[3]; [7]", "result": 0.097}]}
{"smiles": "CCCCC/C=C\\C/C=C\\CCCCCCCCOC[C@@H](CN1CCC[C@H]1C)OCCOCCO[C@H]1CC[C@@]2(C)C(=CCC3C2CC[C@@]2(C)C3CC[C@@H]2[C@H](C)CCCC(C)C)C1", "note": "(stereo partly shown) [E0052]", "values": [{"measurement": "pKa", "setting": "[1]; pKa", "result": 6.95}, {"measurement": "FVII inhib %", "setting": "[2]; [8]", "result": 69.8, "unit": "%"}, {"measurement": "FVII inhib %", "setting": "[2]; [4]", "result": 98.1, "unit": "%"}, {"measurement": "Final size (nm)", "setting": "[3]; [6]", "result": 100.4, "unit": "nm"}, {"measurement": "PDI", "setting": "[3]; [6]", "result": 0.185}]}
{"smiles": "CCCCC/C=C\\C/C=C\\CCCCCCCCOCC(CN1CCCCC1)OCCOCCNC(=O)O[C@H]1CC[C@@]2(C)C(=CCC3C2CC[C@@]2(C)C3CC[C@@H]2[C@H](C)CCCC(C)C)C1", "note": "(stereo partly shown) [E0054]", "values": [{"measurement": "pKa", "setting": "[1]; pKa", "result": 6.58}, {"measurement": "FVII inhib %", "setting": "[2]; [8]", "result": 57.5, "unit": "%"}, {"measurement": "FVII inhib %", "setting": "[2]; dose 1 mg/kg siRNA i.v., lipid/no neutral lipid/CHOL/AVANTI 880150P 50/0/46/4, N/P 3.43", "result": 63, "unit": "%"}, {"measurement": "FVII inhib %", "setting": "[2]; [4]", "result": 97.8, "unit": "%"}, {"measurement": "FVII inhib %", "setting": "[2]; [5]", "result": 98.9, "unit": "%"}, {"measurement": "Final size (nm)", "setting": "[3]; [6]", "result": 103, "unit": "nm"}, {"measurement": "PDI", "setting": "[3]; [6]", "result": 0.2}, {"measurement": "Final size (nm)", "setting": "[3]; [7]", "result": 96, "unit": "nm"}, {"measurement": "PDI", "setting": "[3]; [7]", "result": 0.13}]}
{"smiles": "CCCCC/C=C\\C/C=C\\CCCCCCCCOCC(CN1CCCCC1)OCCOCCOC(=O)CCC(=O)O[C@H]1CC[C@@]2(C)C(=CCC3C2CC[C@@]2(C)C3CC[C@@H]2[C@H](C)CCCC(C)C)C1", "note": "(stereo partly shown) [E0060]", "values": [{"measurement": "pKa", "setting": "[1]; pKa", "result": 6.43}, {"measurement": "FVII inhib %", "setting": "[2]; dose 1 mg/kg siRNA i.v., lipid/no neutral lipid/CHOL/GM-020 NOF 60/0/36/4, N/P 3", "result": 0.0, "unit": "%"}, {"measurement": "Final size (nm)", "setting": "[3]; [9]", "result": 90.25, "unit": "nm"}, {"measurement": "PDI", "setting": "[3]; [9]", "result": 0.171}]}
